From patent US10669267B2, “Substituted N-[2-(4-phenoxypiperidin-1-yl)-2-(1,3-thiazol-5-yl)ethyl]benzamide and N-[2-(4-benzyloxypiperidin-1-yl)-2-(1,3-thiazol-5-yl)ethyl]benzamide derivatives P2X7 receptor antagonists” (Axxam S.P.A., priority 2016, dated 2020)
Like-named read-outs stand apart in the source and are kept apart here.

Experiments:
[1] = target: rat P2X7R (Rattus norvegicus (Rat), UniProt Q64663); assay: rat P2X7 Ca2+ influx, Screen Quest Fluo-8 No Wash Calcium Assay Kit (FLIPR TETRA); format: cell-based; conditions: read-out: rP2X7 (IC50; nM)
Procedure: Ca^2+ influx was measured in HEK-293 cells stably transfected with the receptor using Screen Quest™ Fluo-8 No Wash Calcium Assay Kit (AAt Bioquest®). Briefly, once inside the cells, the lipophilic blocking groups of Fluo-8 are cleaved by non-specific cell esterases, resulting in a negatively-charged fluorescent-dye that stays inside cells. Its fluorescence increases upon binding to calcium. When HEK-293/P2X7 cells were stimulated with BzATP, Ca^2+ entered the cells and the fluorescence of Fluo-8 NW increaseed.
To routinely test the compounds, HEK-293 cells stably transfected with rat P2X7R were seeded overnight in growth medium at 10000, 15000 or 20000 cells/well in 384-well plate, according to the level of response after thawing. 24 hours later, the medium was removed and the cells were pre-loaded at RT for 1 hour with 20 μL/w of Fluo-8 NW prepared in Tyrode 0.3 mM Ca^2+/Mg^2+-free.
Compounds were tested at […] according to the following method: • first injection at […] of 10 μL of 3× test compound (in Tyrode's buffer 0.3 mM Ca^2+/Mg^2+-free+DMSO 0.5% final concentration) • 5′ incubation • second injection at […] of 15 µL of 3× BzATP at ˜ECK) (in Tyrode's buffer 0.3 mM Ca^2+/Mg^2+-free+BSA 0.0003% final concentration) • Fluorescence recording for 3′
Between one plate and the following, tips were extensively washed with water, then with 100% DMSO and finally with water to avoid carry-over inside the tips.
The effect of the test compounds was measured as percent inhibition vs a reference antagonist and IC50 values were calculated accordingly.

[2] = target: human P2X7 channel (Homo sapiens (Human), UniProt Q99572); assay: human P2X7 channel assay by automated patch-clamp (QPatch16X), BzATP-evoked current; format: cell-based; conditions: HEK-293 cells expressing P2X7, whole-cell voltage clamp, 100 microM BzATP, holding -80 mV; read-out: hP2X7 (IC50; nM)
Procedure: In order to directly monitor the block of P2X7 channel, an electrophysiological assay was developed and implemented on the QPatch16X automated electrophysiology instrument.
HEK-293 cells expressing the P2X7 channels were cultured in modified EMEM.
72 hours before experiment, 5 million cells were seeded onto T225 flasks. Just before the experiment cells were washed twice, detached from the flask with trypsin-EDTA, re-suspended in the suspension solution and placed on the QPatch 16x.
The compounds (20 mM in a 100% DMSO) stored at −20° C. were prepared the day of the experiment (a first dilution 1:20 in 100% DMSO to prepare a 1 mM stock solution, then a 1 microM solution in external solution+a serial dilution 1:10).
The standard whole-cell voltage clamp experiments were performed at room temperature. For these experiments the multihole technology was used and the data were sampled at 2 KHz.
After establishment of the seal and the passage in the whole cell configuration, the cells were held at −80 mV. The P2XR7 current was evoked by applying 100 microM of BzATP alone (4 times) and then in the presence increasing concentrations of the compound under investigation (1, 10, 100 and 1000 nM).
The pre-incubation periods 5 to 8 contain increasing concentrations of the compound of interest (1, 10, 100 and 1000 nM), as illustrated in FIGURE.
The maximal inward current evoked by BzATP in absence or presence of increasing concentrations of the compounds under investigation was measured and normalized.
Y: normalized response, 100% down to 0%, decreasing as X increases.
LogIC50: same log units as X
HillSlope: slope factor or HS, unitless

[3] = metabolic stability using Human liver Microsomes; format: in vitro ADME; set-up: unit not given here; conditions: 1 μM test compound, 1 mg/mL protein, pH 7.4, 0-60 min
Procedure: In vitro evaluation of test compounds for metabolic stability using Human liver
Test System Human (Mouse) Liver Microsomes
Test compound concentration: 1μM
Time Points: 0, 5, 10, 30 and 60 minutes
Final Protein concentration: 1 mg/mL
Number of Replicates: Two
Potassium Phosphate Buffer pH 7.4 100 mM
End Point: % Remaining of Test compound, Half life, Clint
Preparation and Dilution of Test Compound:
10 mM stock solution of test compound were prepared in DMSO and dilute with water: acetonitrile (1:1) to a concentration of 1 mM. Working concentration of 100 μM were prepared by further dilution with water: acetonitrile (1: 1).
Preparation of Potassium Phosphate buffer pH 7.4:
100 mL of Milli Q water will be added to K2HPO4 (1.398 g) and KH2PO4 (0.27 g) to get final pH 7.4.
Preincubation mixture: 2.5 μL Test Cpd.+75 μL Liver microsomes@3.33 mg/mL+85 μL of 100 mM potassium phosphate buffer (Preincubate for 10 min @37° C.)
60 min w/o cofactor: 32.5 μL of Preincubation mixture+17.5 μL of 100 mM potassium phosphate buffer (Incubate for 60 min@37° C.)
0 min sample: 16.25 μL of Preincubation mixture+200 μL of acetonitrile containing internal standard+8.75 μL of cofactor Incubation mixture 62 μL of cofactor (2.5 mM)+Remaining incubation mixture (Incubated for 60 min@37° C.).
Sample preparation: 25 μL incubation mixture+200 μL of acetonitrile containing internal standard+Vortex 5 min@1200 rpm+Centrifuge 10 min@4000 rpm. Dilute supernatant 2 fold with water and injected on LC-MS/MS.
Bioanalysis: LC-MS/MS method LC generic gradient conditions will be used and the details will be provided in the report.

[4] = Table 4, HEK-293 cells stably transfected with rat P2X7R, BzATP stimulation
[5] = Table 5, comparison with Compound 59 of WO2015118019

Sequence of human P2X7 channel (Q99572 whole entry): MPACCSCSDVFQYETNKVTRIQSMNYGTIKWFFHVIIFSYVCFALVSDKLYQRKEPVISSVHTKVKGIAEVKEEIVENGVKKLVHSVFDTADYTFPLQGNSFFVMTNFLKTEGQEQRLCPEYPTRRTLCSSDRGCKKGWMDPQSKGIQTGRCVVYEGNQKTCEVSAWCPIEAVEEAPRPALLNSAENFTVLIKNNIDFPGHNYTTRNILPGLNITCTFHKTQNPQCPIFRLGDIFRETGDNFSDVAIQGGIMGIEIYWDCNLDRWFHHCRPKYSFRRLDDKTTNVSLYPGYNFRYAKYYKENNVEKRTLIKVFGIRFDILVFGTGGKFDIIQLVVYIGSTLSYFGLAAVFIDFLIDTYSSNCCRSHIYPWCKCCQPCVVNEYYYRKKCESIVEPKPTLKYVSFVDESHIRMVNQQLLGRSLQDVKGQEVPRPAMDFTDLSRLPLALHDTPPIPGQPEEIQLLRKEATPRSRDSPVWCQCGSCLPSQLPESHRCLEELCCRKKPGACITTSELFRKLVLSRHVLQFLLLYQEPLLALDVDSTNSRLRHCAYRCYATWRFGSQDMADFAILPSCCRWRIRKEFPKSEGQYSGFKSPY
Sequence of rat P2X7R (Q64663 whole entry): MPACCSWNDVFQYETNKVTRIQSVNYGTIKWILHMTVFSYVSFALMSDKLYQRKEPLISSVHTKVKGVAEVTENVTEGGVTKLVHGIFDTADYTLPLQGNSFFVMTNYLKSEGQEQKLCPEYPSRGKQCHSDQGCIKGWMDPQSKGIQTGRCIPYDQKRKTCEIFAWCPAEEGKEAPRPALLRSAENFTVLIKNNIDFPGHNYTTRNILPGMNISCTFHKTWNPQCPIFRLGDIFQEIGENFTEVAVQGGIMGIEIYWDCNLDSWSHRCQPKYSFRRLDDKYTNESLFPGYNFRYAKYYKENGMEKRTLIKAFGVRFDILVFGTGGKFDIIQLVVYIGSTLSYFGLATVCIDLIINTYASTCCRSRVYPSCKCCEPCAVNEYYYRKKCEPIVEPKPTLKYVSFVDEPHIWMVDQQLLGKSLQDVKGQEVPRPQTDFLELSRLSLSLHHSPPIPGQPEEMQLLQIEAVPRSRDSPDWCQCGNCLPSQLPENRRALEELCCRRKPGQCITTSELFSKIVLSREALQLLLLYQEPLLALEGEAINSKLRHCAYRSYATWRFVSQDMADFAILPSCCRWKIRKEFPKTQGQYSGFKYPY

IC50 [1, 4] [nM]	IC50 [1, 5] [nM]	IC50 [2] [nM]	Human Liver Microsomal Clearance (CLi; μg/min/mg protein) [3]	Compound
144	144	39.7		O=C(NCC(c1scnc1C(F)F)N1CCC(Oc2ccc(F)cc2)CC1)c1cccc2ncccc12 (stereo not drawn) [Compound 34, N-{2-[4-(difluoromethyl)-1,3-thiazol-5-yl]-2-[4-(4-fluorophenoxy)piperidin-1-yl]ethyl}quinoline-5-carboxamide]
201	201	57.9		Cc1ncsc1C(CNC(=O)c1cccc2ncccc12)N1CCC(Oc2ccc(F)c(F)c2)CC1 (stereo not drawn) [Compound 24, N-{2-[4-(3,4-difluorophenoxy)piperidin-1-yl]-2-(4-methyl-1,3-thiazol-5-yl)ethyl}quinoline-5-carboxamide]
1040		45		Cc1ncsc1C(CNC(=O)c1c(F)cccc1Cl)N1CCC(OCc2ccc(F)cc2)CC1 (stereo not drawn) [Compound 1, 2-chloro-6-fluoro-N-(2-{4-[(4-fluorophenyl)methoxy]piperidin-1-yl)-2-(4-methyl-1,3-thiazol-5-yl}ethyl)benzamide]
953		28.1		Cc1ncsc1C(CNC(=O)c1c(F)cccc1Cl)N1CCC(OCc2ccccc2F)CC1 (stereo not drawn) [Compound 4, 2-chloro-6-fluoro-N-(2-{4-[(2-fluorophenyl)methoxy]piperidin-1-yl}-2-(4-methyl-1,3-thiazol-5-yl)ethyl)benzamide]
329		40.7		O=C(NCC(c1scnc1C(F)F)N1CCC(Oc2ccccc2F)CC1)c1c(F)cccc1Cl (stereo not drawn) [Compound 30, 2-chloro-N-{2-[4-(difluoromethyl)-1,3-thiazol-5-yl]-2-[4-(2-fluorophenoxy)piperidin-1-yl]ethyl}-6-fluorobenzamide]
583		42.9		Cc1ncsc1C(CNC(=O)c1c(F)cccc1Cl)N1CCC(Oc2ccccc2F)CC1 (stereo not drawn) [Compound 10, 2-chloro-6-fluoro-N-{2-[4-(2-fluorophenoxy)piperidin-1-yl]-2-(4-methyl-1,3-thiazol-5-yl)ethyl}benzamide]
594		30.6	59.41	Cc1ncsc1C(CNC(=O)c1c(F)cccc1Cl)N1CCC(Oc2cc(F)cc(F)c2)CC1 (stereo not drawn) [Compound 11, 2-chloro-N-{2-[4-(3,5-difluorophenoxy)piperidin-1-yl]-2-(4-methyl-1,3-thiazol-5-yl)ethyl}-6-fluorobenzamide]
582		23.9	71.12	Cc1ncsc1C(CNC(=O)c1cccc2ncccc12)N1CCC(Oc2ccc(F)cc2)CC1 (stereo not drawn) [Compound 19, N-{2-[4-(4-fluorophenoxy)piperidin-1-yl]-2-(4-methyl-1,3-thiazol-5-yl)ethyl}quinoline-5-carboxamide]
373		5.95		Cc1ncsc1C(CNC(=O)c1c(F)cccc1Cl)N1CCC(OCc2cccc(F)c2)CC1 (stereo not drawn) [Compound 3, 2-chloro-6-fluoro-N-(2-{4-[(3-fluorophenyl)methoxy]piperidin-1-yl}-2-(4-methyl-1,3-thiazol-5-yl)ethyl)benzamide]
441		28.9		O=C(NCC(c1scnc1C(F)F)N1CCC(Oc2cccc(F)c2)CC1)c1c(F)cccc1Cl (stereo not drawn) [Compound 29, 2-chloro-N-{2-[4-(difluoromethyl)-1,3-thiazol-5-yl]-2-[4-(3-fluorophenoxy)piperidin-1-yl]ethyl}-6-fluorobenzamide]
709		51.5		Cc1ncsc1C(CNC(=O)c1c(F)cccc1Cl)N1CCC(Oc2ccc(F)cc2)CC1 (stereo not drawn) [Compound 7, 2-chloro-6-fluoro-N-{2-[4-(4-fluorophenoxy)piperidin-1-yl]-2-(4-methyl-1,3-thiazol-5-yl)ethyl}benzamide]
133	133	43.2		O=C(NCC(c1scnc1C(F)F)N1CCC(Oc2ccccc2F)CC1)c1cccc2ncccc12 (stereo not drawn) [Compound 37, N-{2-[4-(difluoromethyl)-1,3-thiazol-5-yl]-2-[4-(2-fluorophenoxy)piperidin-1-yl]ethyl}quinoline-5-carboxamide]
355		30.2	93.44	Cc1ncsc1C(CNC(=O)c1cccc2ncccc12)N1CCC(Oc2ccccc2F)CC1 (stereo not drawn) [Compound 22, N-{2-[4-(2-fluorophenoxy)piperidin-1-yl]-2-(4-methyl-1,3-thiazol-5-yl)ethyl}quinoline-5-carboxamide]
380		25.8		Cc1ncsc1C(CNC(=O)c1c(F)cccc1Cl)N1CCC(Oc2ccc(F)c(F)c2)CC1 (stereo not drawn) [Compound 12, 2-chloro-N-{2-[4-(3,4-difluorophenoxy)piperidin-1-yl]-2-(4-methyl-1,3-thiazol-5-yl)ethyl}-6-fluorobenzamide]
182		56.2		O=C(NCC(c1scnc1C(F)F)N1CCC(OCc2ccc(F)c(F)c2)CC1)c1cccc2ncccc12 (stereo not drawn) [Compound 33, N-{2-[4-(difluoromethyl)-1,3-thiazol-5-yl]-2-{4-[(3,4-difluorophenyl)methoxy]piperidin-1-yl}ethyl}quinoline-5-carboxamide]
